This experiment in a line: Biochemical Assay: Test compounds were placed in a Greiner Bio-One (Monroe, N.C.) 1536-well black solid bottom assay plate. 200 millimolar (mM) Tris HCl, pH 7.4, 100 micromolar (μM) EDTA and 0.01% TWEEN-20™, final concentration, was used as the assay buffer. The LDHA reagent was 2 nanomolar (nM) Human LDHA (Meridian Life Science, Inc., Memphis, Tenn.), final concentration, in assay buffer.

Where “and” joins values, the source holds several entries; their conditions need not be identical. Identical values can stand only once. Bounds are passed on as bounds.

On to `NS(=O)(=O)c1ccc(Cc2c(-c3cccc(-c4ccccc4)c3)nn(-c3nc(C(=O)O)cs3)c2CC2CC2)cc1`, for which the IC50 is less than 0.1 µM.
The entry for `NS(=O)(=O)c1ccc(Cc2c(-c3cccc(-c4ccccc4)c3)nn(-c3nc(C(=O)O)cs3)c2C2(C(F)(F)F)CC2)cc1` is “in the range around 29 µM”; for `CC#Cc1cccc(-c2nn(-c3nc(C(=O)O)cs3)c(CC3CC3)c2Cc2ccc(S(N)(=O)=O)c(F)c2)c1` it is less than 0.1 µM; for `NS(=O)(=O)c1ccc(Cc2c(-c3cccc(-c4ccccc4)c3)nn(-c3nc(C(=O)O)cs3)c2CC2CC2)c(F)c1` it is less than 0.1 µM.
The entry for `NS(=O)(=O)c1ccc(Cc2c(-c3cccc(-c4ccccc4)c3)nn(-c3nc(C(=O)O)cs3)c2CC(F)(F)F)cc1` is “in the range around 0.55 µM”.
To `COc1cc(-c2nn(-c3nc(C(=O)O)cs3)c(CC3CC3)c2Cc2ccc(S(N)(=O)=O)cc2)ccc1F` belongs less than 0.1 µM.
Regarding `NS(=O)(=O)c1ccc(Cc2c(C3(C(F)(F)F)CC3)nn(-c3nc(C(=O)O)cs3)c2-c2cccc(-c3ccccc3)c2)cc1F`, the IC50 entry was “in the range around 29 µM”.
To `Cc1ccc(-c2cccc(-c3c(Cc4ccc(S(N)(=O)=O)cc4)c(CC4CC4)nn3-c3nc(C(=O)O)cs3)c2)cc1` belongs “in the range around 29 µM”; to `CCOC(=O)c1csc(-n2nc(-c3ccccc3)c(Cc3ccc(S(N)(=O)=O)cc3)c2C2CC2)n1`, more than 57 µM.
As for `CC(C)(O)C#Cc1cc(-c2nn(-c3nc(C(=O)O)cs3)c(CC3CC3)c2Cc2ccc(S(N)(=O)=O)c(F)c2)ccc1F`, the IC50 was less than 0.1 µM.
The entry for `NS(=O)(=O)c1ccc(Cc2c(CC3CC3)nn(-c3nc(C(=O)O)cs3)c2-c2ccc(F)c(-c3cccc(F)c3)c2)c(F)c1` is “in the range around 29 µM”; for `Cc1ccc(-c2cccc(-c3nn(-c4nc(C(=O)O)cs4)c(CC4CC4)c3Cc3ccc(S(N)(=O)=O)cc3)c2)cc1` it is less than 0.1 µM; for `Cc1ccc(-c2cc(-c3nn(-c4nc(C(=O)O)cs4)c(CC4CC4)c3Cc3ccc(S(N)(=O)=O)cc3F)ccc2F)cc1` it is less than 0.1 µM.
The figure for `CCOC(=O)c1csc(-n2nc(C3CCCCC3)c(Oc3ccc(S(N)(=O)=O)cc3)c2-c2ccccc2)n1` is more than 57 µM; for `Cc1ccc(-c2cccc(-c3c(Cc4ccc(S(N)(=O)=O)c(F)c4)c(CC4CC4)nn3-c3nc(C(=O)O)cs3)c2)cc1` it is “in the range around 29 µM”.
On to `NS(=O)(=O)c1ccc(Cc2c(-c3cccc(-c4cccc(F)c4)c3)nn(-c3nc(C(=O)O)cs3)c2C(F)(F)F)cc1`, for which the IC50 is less than 0.1 µM.
`Cc1ccc(-c2cccc(-c3nn(-c4nc(C(=O)O)cs4)c(CC4CC4)c3Cc3ccc(S(N)(=O)=O)cc3F)c2)cc1` displayed an IC50 of less than 0.1 µM.
To `CCOC(=O)c1csc(-n2nc(CC3CC3)c(Cc3ccc(S(N)(=O)=O)c(F)c3)c2-c2ccc(F)c(-c3cccc(OC)c3)c2)n1` belongs more than 57 µM; to `NS(=O)(=O)c1ccc(Cc2c(-c3ccc(F)c(-c4ccc(C5CC5)cc4)c3)nn(-c3nc(C(=O)O)cs3)c2CC2CC2)cc1`, less than 0.1 µM; to `NS(=O)(=O)c1ccc(Cc2c(CC3CC3)nn(-c3nc(C(=O)O)cs3)c2-c2ccc(F)c(-c3ccc(C4CC4)cc3)c2)cc1`, “in the range around 29 µM”.
As for `CCOC(=O)c1csc(-n2nc(-c3ccc(F)c(C#CC4CCCC4)c3)c(Cc3ccc(S(N)(=O)=O)c(F)c3)c2CC2CC2)n1`, the IC50 was more than 57 µM.
Take `NS(=O)(=O)c1ccc(Cc2c(CC3CC3)nn(-c3nc(C(=O)O)cs3)c2-c2cccc(-c3ccccc3)c2)cc1F`: the half-maximal inhibitory concentration (IC50) result is “in the range around 29 µM”.
The figure for `CCOC(=O)c1csc(-n2nc(CC3CC3)c(Cc3ccc(S(N)(=O)=O)c(F)c3)c2-c2ccc(F)c(-c3cccc(F)c3)c2)n1` is more than 57 µM.
With `C=C(C)C#Cc1cc(-c2nn(-c3nc(C(=O)O)cs3)c(CC3CC3)c2Cc2ccc(S(N)(=O)=O)c(F)c2)ccc1F`, the half-maximal inhibitory concentration (IC50) is less than 0.1 µM.
The entry for `NS(=O)(=O)c1ccc(Cc2c(CC3CC3)nn(-c3nc(C(=O)O)cs3)c2-c2ccc(F)c(-c3ccc(F)cc3)c2)cc1` is “in the range around 29 µM”.
For the compound `NS(=O)(=O)c1ccc(Cc2c(-c3cccc(-c4ccccc4)c3)nn(-c3nc(C(=O)O)cs3)c2C2(C(F)(F)F)CC2)cc1F`, the half-inhibitory concentration (IC50) entry was “in the range around 29 µM”.
To `COc1cc(-c2c(Cc3ccc(S(N)(=O)=O)cc3)c(CC3CC3)nn2-c2nc(C(=O)O)cs2)ccc1F` belongs “in the range around 29 µM”.
The figure for `NS(=O)(=O)c1ccc(Cc2c(-c3ccc(F)c(-c4ccc(F)cc4)c3)nn(-c3nc(C(=O)O)cs3)c2CC2CC2)c(F)c1` is less than 0.1 µM; for `CCOC(=O)c1csc(-n2nc(-c3ccc(F)c(-c4cccc(OC)c4)c3)c(Cc3ccc(S(N)(=O)=O)c(F)c3)c2CC2CC2)n1` it is “in the range around 29 µM”; for `NS(=O)(=O)c1ccc(Cc2c(-c3cccc(N4CCOCC4)c3)nn(-c3ncc(C(=O)O)s3)c2CC2CC2)cc1F` it is less than 0.1 µM.
The figure for `CCOC(=O)c1csc(-n2nc(CC3CC3)c(Cc3ccc(S(N)(=O)=O)cc3F)c2-c2ccc(F)c(-c3cccc(OC)c3)c2)n1` is more than 57 µM.
As to `Cc1ccc(-c2cc(-c3c(Cc4ccc(S(N)(=O)=O)cc4)c(CC4CC4)nn3-c3nc(C(=O)O)cs3)ccc2F)cc1`, the IC50 result was “in the range around 29 µM”.
The entry for `C#Cc1c(Cc2ccc(S(N)(=O)=O)cc2)c(-c2ccccc2)nn1-c1nc(C(=O)O)cs1` is “in the range around 29 µM”; for `CC(C)c1ccc(-c2cc(-c3c(Cc4ccc(S(N)(=O)=O)cc4)c(CC4CC4)nn3-c3nc(C(=O)O)cs3)ccc2F)cc1` it is “in the range around 29 µM”.
To `NS(=O)(=O)c1ccc(Cc2c(CC3CC3)nn(-c3nc(C(=O)O)cs3)c2-c2ccc(F)c(-c3ccc(F)cc3)c2)c(F)c1` belongs “in the range around 29 µM”; to `NS(=O)(=O)c1ccc(Cc2c(Cc3ccccc3)nn(-c3nc(C(=O)O)cs3)c2-c2ccccc2)cc1`, “in the range around 29 µM”; to `Cc1ccc(-c2cccc(-c3nn(-c4nc(C(=O)O)cs4)c(C(F)(F)F)c3Cc3ccc(S(N)(=O)=O)cc3)c2)cc1`, less than 0.1 µM.
The figure for `Cc1ccc(-c2cc(-c3nn(-c4nc(C(=O)O)cs4)c(CC4CC4)c3Cc3ccc(S(N)(=O)=O)cc3)ccc2F)cc1` is less than 0.1 µM; for `CCOC(=O)c1csc(-n2nc(-c3ccc(F)c(-c4cccc(F)c4)c3)c(Cc3ccc(S(N)(=O)=O)cc3F)c2CC2CC2)n1` it is “in the range around 29 µM”; for `CCOC(=O)c1csc(-n2nc(-c3cccc(-c4ccccc4)c3)c(Cc3ccc(S(N)(=O)=O)cc3)c2C2(C(F)(F)F)CC2)n1` it is more than 57 µM.
As for `NS(=O)(=O)c1ccc(Cc2c(-c3cccc(-c4ccccc4)c3)nn(-c3nc(C(=O)O)cs3)c2C2(C(F)(F)F)CC2)c(F)c1`, the half-maximal inhibitory concentration (IC50) result was “in the range around 0.55 µM”.
`CC(C)c1ccc(-c2cc(-c3nn(-c4nc(C(=O)O)cs4)c(CC4CC4)c3Cc3ccc(S(N)(=O)=O)cc3)ccc2F)cc1`: the IC50 is less than 0.1 µM.
Turning to `NS(=O)(=O)c1ccc(Cc2c(C3(C(F)(F)F)CC3)nn(-c3nc(C(=O)O)cs3)c2-c2cccc(-c3ccccc3)c2)cc1`, the IC50 entry was “in the range around 29 µM”.
The figure for `CCOC(=O)c1csc(-n2nc(-c3ccc(F)c(-c4cccc(OC)c4)c3)c(Cc3ccc(S(N)(=O)=O)cc3F)c2CC2CC2)n1` is more than 57 µM; for `CC#Cc1cccc(-c2nn(-c3nc(C(=O)OCC)cs3)c(CC3CC3)c2Cc2ccc(S(N)(=O)=O)c(F)c2)c1` it is “in the range around 29 µM”; for `Cc1ccc(-c2cc(-c3nn(-c4nc(C(=O)O)cs4)c(CC4CC4)c3Cc3ccc(S(N)(=O)=O)c(F)c3)ccc2F)cc1` it is less than 0.1 µM.
The figure for `COc1cccc(-c2cccc(-c3nn(-c4nc(C(=O)O)cs4)c(C(F)(F)F)c3Cc3ccc(S(N)(=O)=O)cc3)c2)c1` is less than 0.1 µM.
As to `NS(=O)(=O)c1ccc(Cc2c(CC3CC3)nn(-c3nc(C(=O)O)cs3)c2-c2cccc(-c3ccccc3)c2)c(F)c1`, the IC50 entry is “in the range around 29 µM”.
Consider `NS(=O)(=O)c1ccc(Cc2c(CC(F)(F)F)nn(-c3nc(C(=O)O)cs3)c2-c2cccc(-c3ccccc3)c2)cc1`, for which the IC50 entry was “in the range around 29 µM”.
The figure for `CCOC(=O)c1csc(-n2nc(-c3ccccc3)c(Oc3ccc(S(N)(=O)=O)cc3)c2C2CCCCC2)n1` is more than 57 µM; for `Cc1ccc(-c2cc(-c3c(Cc4ccc(S(N)(=O)=O)cc4F)c(CC4CC4)nn3-c3nc(C(=O)O)cs3)ccc2F)cc1` it is “in the range around 29 µM”.
The figure for `NS(=O)(=O)c1ccc(Cc2c(-c3ccc(F)c(-c4cccc(F)c4)c3)nn(-c3nc(C(=O)O)cs3)c2CC2CC2)c(F)c1` is less than 0.1 µM; for `CCOC(=O)c1csc(-n2nc(-c3ccc(F)c(-c4cccc(F)c4)c3)c(Cc3ccc(S(N)(=O)=O)c(F)c3)c2CC2CC2)n1` it is more than 57 µM.
To `CCOC(=O)c1csc(-n2nc(CC3CC3)c(Cc3ccc(S(N)(=O)=O)cc3F)c2-c2ccc(F)c(-c3cccc(F)c3)c2)n1` belongs more than 57 µM; to `CCOC(=O)c1csc(-n2nc(-c3cccc(-c4ccccc4)c3)c(Cc3ccc(S(N)(=O)=O)cc3)c2CC2CC2)n1`, “in the range around 29 µM”; to `Cc1ccc(-c2cc(-c3c(Cc4ccc(S(N)(=O)=O)c(F)c4)c(CC4CC4)nn3-c3nc(C(=O)O)cs3)ccc2F)cc1`, “in the range around 29 µM”.
On to `CCOC(=O)c1csc(-n2nc(-c3cccc(-c4ccc(C)cc4)c3)c(Cc3ccc(S(N)(=O)=O)c(F)c3)c2CC2CC2)n1`, for which the IC50 result is “in the range around 29 µM and > 57 µM”.
The entry for `NS(=O)(=O)c1ccc(Cc2c(CC3CC3)nn(-c3nc(C(=O)O)cs3)c2-c2ccc(F)c(Br)c2)cc1` is “in the range around 29 µM”; for `NS(=O)(=O)c1ccc(Cc2c(-c3ccc(F)c(-c4ccc(F)cc4)c3)nn(-c3nc(C(=O)O)cs3)c2CC2CC2)cc1` it is less than 0.1 µM; for `NS(=O)(=O)c1ccc(Cc2c(-c3cccc(-c4ccc(F)cc4)c3)nn(-c3nc(C(=O)O)cs3)c2C(F)(F)F)cc1` it is less than 0.1 µM.
The compound `NS(=O)(=O)c1ccc(Cc2c(-c3ccc(F)c(Br)c3)nn(-c3nc(C(=O)O)cs3)c2CC2CC2)cc1` returned an IC50 of less than 0.1 µM.

For orientation: IC50 means the concentration that inhibits the measured activity by half. Read a low IC50 as greater potency in that assay.

The record behind these values is ChEMBL document CHEMBL5728971, “Small molecule inhibitors of lactate dehydrogenase and methods of use thereof” (2022).
